Among the data in patent US8637557B2, “Aminothiazole derivative” (Taisho Pharmaceutical Co., Ltd, priority 2009, dated 2014) are IC50 values, retold here.

The target of one assay is T1, human PI 3-kinase p120γ (Homo sapiens, UniProt P48736).
T1 construct: purchased Millipore Corporation
T1 sequence (P48736 whole entry): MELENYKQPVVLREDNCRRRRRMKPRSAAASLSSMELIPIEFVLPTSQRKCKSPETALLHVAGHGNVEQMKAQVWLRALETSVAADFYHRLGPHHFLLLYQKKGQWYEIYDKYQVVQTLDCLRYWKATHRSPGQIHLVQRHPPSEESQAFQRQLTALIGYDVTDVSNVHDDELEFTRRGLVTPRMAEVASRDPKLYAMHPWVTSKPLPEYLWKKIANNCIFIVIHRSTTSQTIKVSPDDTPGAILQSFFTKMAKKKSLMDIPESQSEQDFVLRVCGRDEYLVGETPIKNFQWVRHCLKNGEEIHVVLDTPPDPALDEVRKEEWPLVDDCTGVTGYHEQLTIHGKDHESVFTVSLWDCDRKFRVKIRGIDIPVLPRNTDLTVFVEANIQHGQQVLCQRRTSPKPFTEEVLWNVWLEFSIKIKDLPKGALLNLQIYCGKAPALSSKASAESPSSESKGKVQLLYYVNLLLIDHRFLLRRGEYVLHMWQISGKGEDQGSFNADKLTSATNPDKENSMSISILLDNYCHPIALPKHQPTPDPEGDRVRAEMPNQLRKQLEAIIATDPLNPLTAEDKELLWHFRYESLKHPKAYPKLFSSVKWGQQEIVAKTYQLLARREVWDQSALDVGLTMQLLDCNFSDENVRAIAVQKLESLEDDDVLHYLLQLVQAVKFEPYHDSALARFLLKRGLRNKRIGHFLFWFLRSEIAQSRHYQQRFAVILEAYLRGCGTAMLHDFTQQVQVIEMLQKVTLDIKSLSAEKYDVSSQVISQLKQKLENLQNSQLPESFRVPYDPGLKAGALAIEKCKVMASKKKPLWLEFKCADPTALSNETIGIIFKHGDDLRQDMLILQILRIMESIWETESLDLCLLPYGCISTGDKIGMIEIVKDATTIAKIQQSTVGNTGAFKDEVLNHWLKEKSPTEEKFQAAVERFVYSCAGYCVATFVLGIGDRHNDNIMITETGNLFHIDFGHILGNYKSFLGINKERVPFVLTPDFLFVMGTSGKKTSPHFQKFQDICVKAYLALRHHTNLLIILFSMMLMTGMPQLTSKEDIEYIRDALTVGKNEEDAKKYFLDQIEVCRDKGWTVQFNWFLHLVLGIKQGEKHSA
Description: PI 3-kinase p120γ enzyme activity inhibition test. The format is biochemical. Particulars: ATP 10.0 μM, PIP2-PS 5.0 μM, 30° C., 2 hours; read-out: IC50 value. The method, then: Using human PI 3-kinase p120γ (manufactured by Millipore Corporation) and a mixed micellized product (hereinafter abbreviated as PIP2-PS) of the substrate thereof, L-a-Phosphatidyl-D-myo-inositol-4,5-bisphosphate (product of Calbiochem, hereinafter abbreviated as PIP2), and L-a-Phosphatidyl-L-Serine (manufactured by Sigma, hereinafter abbreviated as PS), the compound of the present invention was examined for the inhibitory action on PI3 Kinase p120γ enzyme activity (Km=8.9 μM for ATP, Km=4.0 μM for PIP2-PS).
PIP2-PS was prepared by mixing 500 μM of PIP2 and 2.5 nM of PS and sonicating the mixture for 40 minutes while ice cooling to cause micellization. ATP (final concentration 10.0 μM), [γ-^33P] ATP (final concentration 10 μCi/ml), PIP2-PS (final concentration 5.0 μM) and DMSO solutions of the test compound in different concentrations (compound final concentration 1.0×10^−5 to 2.4×10^−12 M, DMSO final concentration 0.1%) were added to PI 3-kinase p120γ, stirred and reacted at 30° C. for 2 hours. Using Phospholipid-Coated FlashPlate Microplates, 96-Well and Phospholipid FlashPlate Coating Buffer (both manufactured by PerkinElmer Co., Ltd.), PIP2-PS and phosphorylated PIP2-PS were allowed to be adsorbed to the well wall of the plate and collected. The well was washed twice with PBS (Phosphate-Buffered Saline) and dried. The radioactivity was measured using Top Count NXT (manufactured by PerkinElmer Co., Ltd.), whereby the phosphorylated amount (a) of PIP2-PS at the time of compound addition was calculated.
The same procedure was carried out in the absence of the test compound and the phosphorylated amount (b) of PIP2-PS was calculated. Further, the same procedure was carried out in the absence of both of the substrate and the test compound, and the PIP2-PS phosphorylated amount (c) of the background was calculated.
The PI3 Kinase p120γ enzyme activity suppression rate of the compound was calculated by the following formula. Suppression rate (%)=[1−(a−c)/(b−c)]×100
More specifically, using the suppression rate by the test compound of different concentrations, the IC50 value was calculated according to the dose-dependent inhibition curve analyzed by a data analysis software Origin (Lightstone Corp.) and used as the inhibitory activity index.
Regarding `CC(=O)Nc1nc(C)c(-c2nc(CCC(C)C)no2)s1` [Example 82], the IC50 amounted to 88 nM.

For `CC(=O)Nc1nc(C)c(-c2nc(-c3ccc(OCc4cccnc4)nc3)no2)s1` [Example 5], the IC50 was found to be 7230 nM.

The same assay, now with this note: ATP 10.0 μM, PIP2-PS 5.0 μM, 30° C., 2 hours; read-out: PI3Kγ (IC50 value class).
On to `CC(=O)Nc1nc(C)c(-c2nc(-c3ccc(C)nc3)no2)s1` [Example 17], for which the IC50 is < 100 nM.

`CC(=O)Nc1nc(C)c(-c2nc(CCC(C)(C)O)no2)s1` [Example 47]: the IC50 lay in the range of 100 to 500 nM.

Take `CC(=O)Nc1nc(C)c(-c2nc(CC(C)(C)O)no2)s1` [Example 34]: the IC50 is < 100 nM. On the same count and under the same terms, the result for `Cc1nc(NC(=O)NCCC(=O)NC(C)(C)C)sc1-c1nc(-c2cccnc2)no1` [Example 132] reads < 100 nM; that for `CC(=O)Nc1nc(C)c(-c2nc(CC(C)C)no2)s1` [Example 20], < 100 nM. Still for that read-out and setting: the result for `CC(=O)Nc1nc(C)c(-c2nc(-c3cccnc3C)no2)s1` [Example 6] reads < 100 nM. On the same count and under the same terms, under `CC(=O)Nc1nc(C)c(-c2nc(C3CCOC3)no2)s1` (centres unmarked) [Example 63] stands < 100 nM. `CC(=O)Nc1nc(C)c(-c2nc(-c3cncnc3)no2)s1` [Example 3, N-{4-methyl-5-[3-(pyrimidin-5-yl)-1,2,4-oxadiazol-5-yl]-1,3-thiazol-2-yl}acetamide]: the IC50 is < 100 nM. Consider `CC(=O)Nc1nc(C)c(-c2nc(CC3(CO)CC3)no2)s1` [Example 48], for which the IC50 was < 100 nM.

For `COC(C)(C)Cc1noc(-c2sc(NC(C)=O)nc2C)n1` [Example 84, N-{5-[3-(2-methoxy-2-methylpropyl)-1,2,4-oxadiazol-5-yl]-4-methyl-1,3-thiazol-2-yl}acetamide], the IC50 lay in the range of 100 to 500 nM. In the case of `CC(=O)Nc1nc(C)c(-c2nc(-c3cncc(O)c3)no2)s1` [Example 32], the IC50 was < 100 nM. For `COCc1noc(-c2sc(NC(C)=O)nc2C)n1` [Example 50], the IC50 was 100 to 500 nM. Same read-out and setting: the result for `CC(=O)Nc1nc(C)c(-c2nc(-c3cnccc3C)no2)s1` [Example 14] reads < 100 nM. The same measure, in the same setting: the result for `CC(=O)Nc1nc(C)c(-c2nc(C(C)(C)CCO)no2)s1` [Example 73] reads < 100 nM.

For `Cc1nc(NC(=O)NCCc2ccccn2)sc1-c1nc(-c2cccnc2)no1` [Example 171], the IC50 was < 100 nM. On the same count and under the same terms, under `CCOC(=O)CC(C)NC(=O)Nc1nc(C)c(-c2nc(-c3cccnc3)no2)s1` (centres unmarked) [Example 143] stands < 100 nM; under `CCOC(=O)C(C)(C)Cc1noc(-c2sc(NC(C)=O)nc2C)n1` [Example 105], 100 to 500 nM; under `CC(=O)Nc1nc(C)c(-c2nc(CCC(C)C)no2)s1` [Example 82], < 100 nM. Still for that read-out and setting: under `Cc1nc(NC(=O)N2CCC(O)CC2)sc1-c1nc(-c2cccnc2)no1` [Example 137] stands 500 to 10000 nM. Same read-out and setting: the result for `CC(=O)Nc1nc(C)c(-c2nc(CC(C)(C)C(N)=O)no2)s1` [Example 111] reads < 100 nM; that for `COC(=O)CCc1noc(-c2sc(NC(C)=O)nc2C)n1` [Example 71], 100 to 500 nM. Consider `CC(=O)Nc1nc(C)c(-c2nc(C(N)=O)no2)s1` [Example 70], for which the IC50 was 100 to 500 nM.

On to `CC(=O)Nc1nc(C)c(-c2nc(N3CCCC(O)C3)no2)s1` (centres unmarked) [Example 93], for which the IC50 was < 100 nM. Still for that read-out and setting: under `Cc1nc(NC(=O)NCC(C)O)sc1-c1nc(-c2cccnc2)no1` (centres unmarked) [Example 175] stands < 100 nM. On the same count and under the same terms, the result for `CCOC(=O)c1noc(-c2sc(NC(C)=O)nc2C)n1` [Example 55, Ethyl-5-[2-(acetylamino)-4-methyl-1,3-thiazol-5-yl]-1,2,4-oxadiazol-3-carboxylate] reads 100 to 500 nM. The same measure, in the same setting: under `CC(=O)Nc1nc(C)c(-c2nc(CCN3CCCC3=O)no2)s1` [Example 89] stands 500 to 10000 nM.

For `CC(=O)Nc1nc(C)c(-c2nc(-c3ccccc3)no2)s1` [Example 7], the IC50 was < 100 nM. Same read-out and setting: the result for `CNCc1noc(-c2sc(NC(C)=O)nc2C)n1` [Example 79] reads 500 to 10000 nM; that for `Cc1nc(NC(=O)NCCCC(=O)OC(C)(C)C)sc1-c1nc(-c2cccnc2)no1` [Example 125], < 100 nM; that for `CC(=O)Nc1nc(C)c(-c2nc(N3CC[C@H](O)C3)no2)s1` [Example 102], 100 to 500 nM. Still for that read-out and setting: the result for `CC(=O)Nc1nc(C)c(-c2nc(CC(C)(C)C)no2)s1` [Example 68] reads < 100 nM; that for `CC(=O)Nc1nc(C)c(-c2nc(-c3cccnc3)no2)s1` [Example 1, N-{4-methyl-5-[3-(pyridin-3-yl)-1,2,4-oxadiazol-5-yl]-1,3-thiazol-2-yl}acetamide], < 100 nM. Take `COC(=O)c1cncc(-c2noc(-c3sc(NC(C)=O)nc3C)n2)c1` [Example 37]: the IC50 was < 100 nM. The same measure, in the same setting: the result for `COCCNC(=O)CCNC(=O)Nc1nc(C)c(-c2nc(CC(F)(F)F)no2)s1` [Example 167] reads < 100 nM; that for `Cc1nc(NC(=O)NCCC(=O)O)sc1-c1nc(-c2cccnc2)no1` [Example 136], < 100 nM.

Regarding `COC(Cc1noc(-c2sc(NC(C)=O)nc2C)n1)OC` [Example 52], the IC50 was in the range of 500 to 10000 nM. The same measure, in the same setting: under `CC(=O)Nc1nc(C)c(-c2nc(C3CC3)no2)s1` [Example 83] stands < 100 nM.

As for `CC(=O)Nc1nc(C)c(-c2nc(-c3ccc(OCc4cccnc4)nc3)no2)s1` [Example 5], the IC50 was in the range of 500 to 10000 nM.

For `CCC(CC)(CO)Cc1noc(-c2sc(NC(C)=O)nc2C)n1` [Example 46], the IC50 is < 100 nM.

Regarding `CNC(=O)c1noc(-c2sc(NC(C)=O)nc2C)n1` [Example 78], the IC50 lay within 100 to 500 nM.

For the molecule `CC(=O)Nc1nc(C)c(-c2nc(C(=O)N3CC(O)C3)no2)s1` [Example 90], the half-inhibitory concentration (IC50) is 100 to 500 nM. The same measure, in the same setting: the result for `Cc1nc(NC(=O)NCCC(=O)N2CCC(O)CC2)sc1-c1nc(-c2cccnc2)no1` [Example 150] reads < 100 nM; that for `CC(=O)Nc1nc(C)c(-c2nc(-c3cc[nH]c(=O)c3)no2)s1` [Example 113], 100 to 500 nM; that for `CC(=O)Nc1nc(C)c(-c2nc(-c3ccccn3)no2)s1` [Example 10], 100 to 500 nM.

Take `Cc1nc(NC(=O)NCCCOC(C)(C)C)sc1-c1nc(-c2cccnc2)no1` [Example 130]: the IC50 is < 100 nM. On the same count and under the same terms, the result for `CC(=O)Nc1nc(C)c(-c2nc(-c3cccc(O)c3)no2)s1` [Example 27] reads < 100 nM. `COCC(=O)Nc1nc(C)c(-c2nc(-c3cccnc3)no2)s1` [Example 116]: the IC50 is < 100 nM. Still for that read-out and setting: under `CC(=O)Nc1nc(C)c(-c2nc(CC3(CO)COC3)no2)s1` [Example 57] stands 100 to 500 nM.
